ChEMBL document CHEMBL5506025, “Discovery of LLC0424 as a Potent and Selective in Vivo NSD2 PROTAC Degrader” (J Med Chem, 2024)
Calls of active or inactive are those of the source. The calls are words filed in the database; no cut-off is given here.

Key:
[1] = biological target: T1, Protein cereblon/Histone-lysine N-methyltransferase NSD2 (Homo sapiens) (UniProt O96028+Q96SW2); assay: PROTAC activity at CRBN/NSD2 in human SEM cells assessed as induction of NSD2 degradation at 2 uM measured upto 24 hrs by immunoblot analysis; format: cell-based
T1 sequence (Q96SW2 whole entry, looked up, one chain of several): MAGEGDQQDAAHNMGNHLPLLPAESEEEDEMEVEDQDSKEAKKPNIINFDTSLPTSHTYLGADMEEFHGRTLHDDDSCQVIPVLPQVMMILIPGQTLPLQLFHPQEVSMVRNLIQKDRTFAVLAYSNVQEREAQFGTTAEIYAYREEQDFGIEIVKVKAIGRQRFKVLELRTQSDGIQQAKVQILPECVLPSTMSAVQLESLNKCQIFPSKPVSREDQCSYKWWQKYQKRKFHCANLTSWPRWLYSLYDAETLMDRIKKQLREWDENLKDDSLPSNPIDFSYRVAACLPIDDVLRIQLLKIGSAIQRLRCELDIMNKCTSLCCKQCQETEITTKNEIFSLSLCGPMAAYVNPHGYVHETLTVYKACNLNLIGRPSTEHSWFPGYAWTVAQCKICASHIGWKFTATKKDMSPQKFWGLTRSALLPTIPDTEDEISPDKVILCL

[2] = biological target: Protein cereblon/Eukaryotic peptide chain release factor GTP-binding subunit ERF3A (Homo sapiens) (UniProt Q96SW2+P15170); assay: PROTAC activity at CRBN/GSPT1 in human SEM cells assessed as decrease in GSPT1 level at 2 uM measured upto 24 hrs by immunoblot analysis; format: cell-based
Protein cereblon/Eukaryotic peptide chain release factor GTP-binding subunit ERF3A (Homo sapiens), sequence (P15170 whole entry, looked up): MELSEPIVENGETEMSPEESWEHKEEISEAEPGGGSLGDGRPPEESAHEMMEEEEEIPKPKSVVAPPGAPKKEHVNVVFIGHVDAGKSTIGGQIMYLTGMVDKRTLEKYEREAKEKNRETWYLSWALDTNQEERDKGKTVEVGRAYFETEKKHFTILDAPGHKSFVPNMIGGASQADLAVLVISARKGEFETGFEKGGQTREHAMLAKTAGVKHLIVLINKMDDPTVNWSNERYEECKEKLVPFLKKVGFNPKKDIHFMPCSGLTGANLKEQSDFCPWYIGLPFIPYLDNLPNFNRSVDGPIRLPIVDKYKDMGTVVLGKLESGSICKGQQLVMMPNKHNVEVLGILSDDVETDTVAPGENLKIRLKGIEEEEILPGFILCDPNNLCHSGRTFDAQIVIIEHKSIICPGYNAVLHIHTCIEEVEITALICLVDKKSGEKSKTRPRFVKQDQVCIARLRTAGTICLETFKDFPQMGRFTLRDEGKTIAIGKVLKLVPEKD
Protein cereblon/Eukaryotic peptide chain release factor GTP-binding subunit ERF3A (Homo sapiens), sequence (Q96SW2 whole entry, looked up): as the sequence (Q96SW2 whole entry, looked up, one chain of several) above

[3] = biological target: T1, Protein cereblon/Histone-lysine N-methyltransferase NSD2 (Homo sapiens); assay: PROTAC activity at CRBN/NSD2 in human RPMI 8402 cells assessed as induction of NSD2 degradation at 0.5 to 2 uM measured after 24 hrs by immunoblot analysis; format: cell-based; details: dose 0.5-2 µM
[4] = biological target: T1, Protein cereblon/Histone-lysine N-methyltransferase NSD2 (Homo sapiens); assay: PROTAC activity at CRBN/NSD2 in human SEM cells assessed as induction of NSD2 degradation at 0.5 to 2 uM measured after 24 hrs by immunoblot analysis; format: cell-based; details: dose 0.5-2 µM
[5] = biological target: T1, Protein cereblon/Histone-lysine N-methyltransferase NSD2 (Homo sapiens); assay: PROTAC activity at CRBN/NSD2 in human RPMI 8402 cells assessed as induction of NSD2 degradation at 2 uM measured after 12 to 24 hrs by immunoblot analysis; format: cell-based; details: time 12-24 hrs
[6] = biological target: T1, Protein cereblon/Histone-lysine N-methyltransferase NSD2 (Homo sapiens); assay: PROTAC activity at CRBN/NSD2 in human SEM cells assessed as induction of NSD2 degradation at 2 uM measured after 12 to 24 hrs by immunoblot analysis; format: cell-based; details: time 12-24 hrs
[7] = biological target: T2, Histone-lysine N-methyltransferase NSD2 (Homo sapiens, UniProt O96028); assay: Induction of NSD2 degradation in HEK293FT cells measured after 48 hrs; format: cell-based
T2 sequence (O96028 whole entry): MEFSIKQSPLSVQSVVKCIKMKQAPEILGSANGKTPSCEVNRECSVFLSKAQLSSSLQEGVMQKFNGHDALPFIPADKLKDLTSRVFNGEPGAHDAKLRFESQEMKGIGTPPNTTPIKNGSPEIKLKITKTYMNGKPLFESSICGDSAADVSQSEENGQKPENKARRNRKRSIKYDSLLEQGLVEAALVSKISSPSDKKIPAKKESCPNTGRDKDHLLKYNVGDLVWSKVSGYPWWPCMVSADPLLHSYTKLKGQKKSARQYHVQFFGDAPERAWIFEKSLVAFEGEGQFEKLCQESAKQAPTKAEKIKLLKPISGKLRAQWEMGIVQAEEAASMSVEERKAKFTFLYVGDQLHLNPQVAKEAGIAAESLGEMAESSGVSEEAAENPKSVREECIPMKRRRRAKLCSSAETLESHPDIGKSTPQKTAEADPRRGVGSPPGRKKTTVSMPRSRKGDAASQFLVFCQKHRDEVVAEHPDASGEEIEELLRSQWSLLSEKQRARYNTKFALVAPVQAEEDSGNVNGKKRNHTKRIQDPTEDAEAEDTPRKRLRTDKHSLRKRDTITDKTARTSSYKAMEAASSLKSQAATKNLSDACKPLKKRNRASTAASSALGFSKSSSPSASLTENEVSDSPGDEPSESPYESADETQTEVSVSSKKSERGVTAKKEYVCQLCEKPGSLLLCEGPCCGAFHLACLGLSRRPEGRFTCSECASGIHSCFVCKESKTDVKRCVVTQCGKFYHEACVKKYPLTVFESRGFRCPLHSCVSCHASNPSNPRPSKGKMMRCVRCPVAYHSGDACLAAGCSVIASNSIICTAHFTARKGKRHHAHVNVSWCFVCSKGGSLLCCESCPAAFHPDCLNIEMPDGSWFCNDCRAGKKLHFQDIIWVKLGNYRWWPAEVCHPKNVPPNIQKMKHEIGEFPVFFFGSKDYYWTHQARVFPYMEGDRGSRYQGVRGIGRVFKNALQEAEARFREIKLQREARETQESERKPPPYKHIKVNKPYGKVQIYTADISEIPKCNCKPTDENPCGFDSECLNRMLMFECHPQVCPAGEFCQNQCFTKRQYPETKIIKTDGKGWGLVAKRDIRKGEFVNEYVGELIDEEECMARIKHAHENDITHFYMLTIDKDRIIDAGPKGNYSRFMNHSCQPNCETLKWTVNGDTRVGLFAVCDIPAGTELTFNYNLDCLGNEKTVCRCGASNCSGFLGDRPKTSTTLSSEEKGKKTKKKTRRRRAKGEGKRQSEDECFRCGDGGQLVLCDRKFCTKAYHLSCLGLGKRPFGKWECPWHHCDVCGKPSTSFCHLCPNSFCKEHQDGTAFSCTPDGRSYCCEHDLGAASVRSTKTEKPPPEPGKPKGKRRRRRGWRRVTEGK

[8] = test system: RPMI 8402; assay: Inhibition of colony formation in human RPMI 8402 cells at 2 uM administered every three days for 30 days by iodonitrotetrazolium chloride staining based microscopy analysis; format: functional, cell-based; details: time 30.0 day

CC(C)N(Cc1ccc(C(=O)Nc2ccc(C(=O)NC3CCN(c4ccc5c(c4)C(=O)N(C4CCC(=O)NC4=O)C5=O)CC3)cc2)cc1)C(=O)c1ccc2c(c1)OCC(=O)N2 (stereo unspecified)
Activity [1]: inactive
Activity [2]: Active

NCCCCCCNC(=O)c1ccc(NC(=O)c2ccc(CN(C(=O)c3ccc4c(c3)OCC(=O)N4)C3CC3)cc2)cc1
Activity [3]: inactive
Activity [4]: inactive
Activity [5]: inactive
Activity [6]: inactive

O=C(CNc1cccc2c1C(=O)N(C1CCC(=O)NC1=O)C2=O)NCCCOc1ccc(NC(=O)c2ccc(CN(C(=O)c3ccc4c(c3)OCC(=O)N4)C3CC3)cc2)nc1 (stereo unspecified)
Activity [3]: inactive
Activity [4]: inactive
Activity [5]: inactive
Activity [6]: inactive
DC50 [7]: 5.2 µM

CN1C(=O)CCC(N2C(=O)c3ccc(N4CCC(NC(=O)c5ccc(NC(=O)c6ccc(CN(C(=O)c7ccc8c(c7)OCC(=O)N8)C7CC7)cc6)cc5)CC4)cc3C2=O)C1=O (stereo unspecified)
Activity [3]: inactive
Activity [4]: inactive
Activity [5]: inactive
Activity [6]: inactive
inhibition [8]: inactive
